Experimental data from patent publication US20050080076A1 (Xanodyne Pharmacal, Inc., priority 2003, published 2005).

What was measured:
Adrenergic α1A = Adrenergic α1A (Homo sapiens, UniProt P25100); experiment: Receptor binding, Adrenergic α1A
Description: Receptor-ligand binding studies were performed as known to one skilled in the art. Compounds evaluated were LMP, the parent compound, the NDM LMP metabolite of LMP, and the sulfoxide metabolite of LMP. These studies verified receptor binding and affinity by the parent compound, as well as identified other potential receptors for the parent compound and its metabolites, and identified and verified receptors and receptor affinity for the metabolites. […] Binding to the histamine H1 receptor, the calcium ion channel receptor, and the sodium ion channel receptor were also evaluated. In each of the tables, the following abbreviations are used: LMP indicates the parent compound levomepromazine. NDM LMP indicates the N-desmethyl (N-desmethyl) metabolite. Sulfoxide indicates the sulfoxide metabolite. […] Ki (the inhibition constants of binding) indicate binding affinity.

[1] = test system: Primary human hepatocytes; experiment: In vitro metabolism in primary human hepatocytes; assay type: in vitro ADME

Chain of Adrenergic α1A (P25100 whole entry): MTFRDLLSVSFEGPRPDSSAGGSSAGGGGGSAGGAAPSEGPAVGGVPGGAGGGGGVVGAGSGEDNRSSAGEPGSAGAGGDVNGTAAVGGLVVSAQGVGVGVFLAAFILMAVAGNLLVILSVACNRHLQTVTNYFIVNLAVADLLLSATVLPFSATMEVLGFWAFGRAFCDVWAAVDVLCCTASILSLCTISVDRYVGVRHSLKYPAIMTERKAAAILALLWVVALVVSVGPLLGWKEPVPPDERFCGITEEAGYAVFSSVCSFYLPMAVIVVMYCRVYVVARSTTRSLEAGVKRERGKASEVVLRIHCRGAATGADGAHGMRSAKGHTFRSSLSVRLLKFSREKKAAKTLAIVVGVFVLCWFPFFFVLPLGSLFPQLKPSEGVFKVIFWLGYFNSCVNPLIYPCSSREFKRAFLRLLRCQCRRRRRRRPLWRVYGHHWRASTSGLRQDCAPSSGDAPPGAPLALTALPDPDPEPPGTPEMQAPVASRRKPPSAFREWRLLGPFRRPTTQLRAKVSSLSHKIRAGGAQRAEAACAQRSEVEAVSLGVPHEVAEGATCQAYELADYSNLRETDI

Row | SMILES | Ki (Adrenergic α1A) [nM] | Phase I biotransformation [1] | Phase II biotransformation (conjugation) [1] | metabolic stability relative to LMP [1] | sulfoxide metabolite formation [1]
1 | COc1ccc2c(c1)N(C[C@H](C)CN(C)C)c1ccccc1[S+]2[O-] (some centres unmarked) [Sulfoxide, levomepromazine sulfoxide] | 141 |  |  |  | 
2 | CNCC(C)CN1c2ccccc2Sc2ccc(OC)cc21 (stereo not drawn) [NDM LMP, R(+) 2-methoxy-10-2-methyl-3-monomethylaminopropyl phenothiazine] |  | metabolized to only one putative primary amine metabolite | did not appear to undergo any Phase II biotransformation | much more metabolically stable than its LMP parent compound | no detectable sulfoxide metabolites were formed
